As a reminder, the IC50 is the concentration that gives 50% inhibition.

These results are taken from US10669272B2, “Substituted naphthyridinone compounds useful as T cell activators” (BRISTOL-MYERS SQUIBB COMPANY, priority 2018, dated 2020).

Where two headings read alike, the source gives them in different places.

Experiment [1] has as its target T1, human DGKα (Homo sapiens, UniProt P23743).
T1 construct: TVMV protease cleavage site (C); Hexa-His (C); made in house; host or cells: Sf9 insect cells (baculovirus, Bac-to-Bac)
Briefly: DGKα LIPGLO assay (extruded liposome substrate), in vitro DGK inhibition. To be noted: read-out: DGKa LIPGLO IC50. The format is biochemical.

In experiment [2] the target is T2, human DGKζ (Homo sapiens, UniProt Q13574).
T2 construct: TVMV protease cleavage site (C); Hexa-His (C); made in house; host or cells: Sf9 insect cells (baculovirus, Bac-to-Bac)
T2 sequence (Q13574 with tags, fused parts or gaps isoform Q13574-4): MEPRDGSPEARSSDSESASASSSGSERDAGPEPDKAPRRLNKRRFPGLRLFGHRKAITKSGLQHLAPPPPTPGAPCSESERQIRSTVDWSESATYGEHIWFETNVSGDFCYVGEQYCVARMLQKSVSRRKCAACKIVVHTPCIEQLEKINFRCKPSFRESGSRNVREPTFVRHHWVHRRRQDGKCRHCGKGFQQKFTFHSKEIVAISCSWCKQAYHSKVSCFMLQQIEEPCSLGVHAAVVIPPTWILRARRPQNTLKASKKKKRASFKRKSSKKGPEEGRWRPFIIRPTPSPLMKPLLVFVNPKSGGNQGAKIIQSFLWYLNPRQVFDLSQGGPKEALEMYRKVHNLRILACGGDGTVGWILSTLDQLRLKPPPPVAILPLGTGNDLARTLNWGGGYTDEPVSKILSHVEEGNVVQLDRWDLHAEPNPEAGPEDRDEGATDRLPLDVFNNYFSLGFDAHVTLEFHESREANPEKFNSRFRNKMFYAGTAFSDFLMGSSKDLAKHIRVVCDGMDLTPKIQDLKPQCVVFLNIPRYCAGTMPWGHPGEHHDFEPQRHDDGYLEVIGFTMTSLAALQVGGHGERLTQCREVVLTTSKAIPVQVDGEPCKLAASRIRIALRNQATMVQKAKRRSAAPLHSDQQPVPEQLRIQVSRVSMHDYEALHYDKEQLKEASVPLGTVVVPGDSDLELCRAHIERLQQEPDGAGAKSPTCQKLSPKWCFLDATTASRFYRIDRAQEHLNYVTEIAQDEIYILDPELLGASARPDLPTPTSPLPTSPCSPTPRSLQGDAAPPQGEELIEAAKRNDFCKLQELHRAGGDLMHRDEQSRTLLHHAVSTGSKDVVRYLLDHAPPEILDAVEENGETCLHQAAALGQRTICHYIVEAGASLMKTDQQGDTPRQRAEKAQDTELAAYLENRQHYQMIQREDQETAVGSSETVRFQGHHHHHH
Put plainly: DGKζ LIPGLO assay (extruded liposome substrate), in vitro DGK inhibition. The format is biochemical. Particulars: read-out: DGKz LIPGLO IC50.

T1 sequence (P23743 with tags, fused parts or gaps): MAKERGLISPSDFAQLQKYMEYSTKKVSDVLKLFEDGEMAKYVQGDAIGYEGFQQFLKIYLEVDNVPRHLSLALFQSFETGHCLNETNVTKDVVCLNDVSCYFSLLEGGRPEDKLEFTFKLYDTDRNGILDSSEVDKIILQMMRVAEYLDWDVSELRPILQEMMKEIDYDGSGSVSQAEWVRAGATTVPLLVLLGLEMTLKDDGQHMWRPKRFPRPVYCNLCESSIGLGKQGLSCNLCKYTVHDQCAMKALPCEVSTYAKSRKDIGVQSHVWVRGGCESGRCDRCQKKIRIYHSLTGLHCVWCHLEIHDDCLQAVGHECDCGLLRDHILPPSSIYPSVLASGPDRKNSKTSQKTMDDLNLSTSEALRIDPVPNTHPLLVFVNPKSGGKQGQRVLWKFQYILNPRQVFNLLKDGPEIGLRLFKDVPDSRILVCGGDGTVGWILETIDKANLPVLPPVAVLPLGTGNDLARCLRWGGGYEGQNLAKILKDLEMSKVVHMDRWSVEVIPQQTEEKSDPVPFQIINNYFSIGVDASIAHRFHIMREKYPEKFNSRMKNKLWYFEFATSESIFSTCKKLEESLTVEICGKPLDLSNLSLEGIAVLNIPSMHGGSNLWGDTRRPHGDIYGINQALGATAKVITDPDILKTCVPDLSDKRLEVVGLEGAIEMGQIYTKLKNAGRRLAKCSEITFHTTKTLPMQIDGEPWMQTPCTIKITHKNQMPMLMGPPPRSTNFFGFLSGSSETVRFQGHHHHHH

With `C[C@@H]1CN(c2cc(=O)n(C)c3ccc(C#N)nc23)[C@@H](C)CN1C(c1ccc(F)cc1)c1cncc(F)c1` (single isomer, unassigned) [Example 386], the IC50 worked out at 2.3 µM in experiment [1] (liposome (LIPGLO) assay) and 4.6 µM in experiment [2] (liposome (LIPGLO) assay). For `CC(c1ccc(Br)cc1)N1C[C@H](C)N(c2c(C#N)c(=O)n(C)c3ccc(C#N)nc23)C[C@H]1C` (single isomer, unassigned) [Example 789], the results for the IC50 in experiment [1] (DGKα liposome (LIPGLO) assay) and in experiment [2] (DGKζ liposome (LIPGLO) assay) were 1.2 µM and 7 µM, respectively. For the compound `C[C@@H]1CN(c2c(C#N)c(=O)n(C)c3ccc(Br)nc23)CCN1C(c1ccc(Cl)cc1)c1ccc(Cl)cc1` [Example 102, (R)-4-(4-(bis(4-chlorophenyl)methyl)-3-methylpiperazin-1-yl)-6-bromo-1-methyl-2-oxo-1,2-dihydro-1,5-naphthyridine-3-carbonitrile], the IC50 was 2.9 µM in experiment [1] (liposome (LIPGLO) assay) and 8.3 µM in experiment [2] (liposome (LIPGLO) assay).

Take `CC(C)[C@H]1CN(C(c2ccc(F)cc2)c2ccc(F)cc2)[C@@H](C)CN1c1cc(=O)n(C)c2ccc(C#N)nc12` [Example 125, 8-((2S,5S)-4-(bis(4-fluorophenyl)methyl)-2-isopropyl-5-methylpiperazin-1-yl)-5-methyl-6-oxo-5,6-dihydro-1,5-naphthyridine-2-carbonitrile]: the IC50 in experiment [1] (liposome (LIPGLO) assay) turned out to be 36 µM; in experiment [2] (liposome (LIPGLO) assay) it was 240 µM. For `CC(c1cc(F)c(F)cc1Cl)N1C[C@H](C)N(c2cc(=O)n(C)c3ccc(C#N)nc23)C[C@H]1C` (stereo partly drawn) [Example 486, 8-((2S,5R)-4-(1-(2-chloro-4,5-difluorophenyl)ethyl)-2,5-dimethylpiperazin-1-yl)-5-methyl-6-oxo-5,6-dihydro-1,5-naphthyridine-2-carbonitrile] the same measures were 27 µM and 14 µM. On to `COC[C@@H]1CN(c2cc(=O)n(C)c3ccc(C#N)nc23)[C@@H](C)CN1C(c1ccc(F)cc1)c1nc(C2CC2)no1` (stereo partly drawn) [Example 1393, 8-((2S,5S)-4-((3-cyclopropyl-1,2,4-oxadiazol-5-yl)(4-fluorophenyl)methyl)-5-(methoxymethyl)-2-methylpiperazin-1-yl)-5-methyl-6-oxo-5,6-dihydro-1,5-naphthyridine-2-carbonitrile], for which the half-inhibitory concentration (IC50) in experiment [1] (liposome (LIPGLO) assay) turned out to be 0.022 µM; in experiment [2] (liposome (LIPGLO) assay) it was 0.016 µM.

Consider `C[C@@H]1CN(c2cc(=O)n(C)c3ccc(C#N)nc23)[C@@H](C)CN1C(c1cccc(F)c1)c1ccccn1` (single isomer, unassigned) [Example 374], for which the results for the IC50 in experiment [1] (liposome (LIPGLO) assay) and in experiment [2] (liposome (LIPGLO) assay) were 0.57 µM and 3.8 µM, respectively. On the same counts, the results for `CCC(c1ccc(OC(C)(C)C)cc1)N1C[C@H](C)N(c2cc(=O)n(C)c3ccc(C#N)nc23)C[C@H]1C` (single isomer, unassigned) [Example 1444] are 10 µM and 0.48 µM. On the same counts, the results for `CC[C@@H]1CN(c2cc(=O)n(C)c3ccc(C#N)nc23)[C@@H](C)CN1C(C)c1ccc(OC(F)(F)F)cc1F` (single isomer, unassigned) [Example 1096] are 2.2 µM and 1.4 µM.

As for `C[C@@H]1CN(c2cc(=O)n(C)c3ccc(C#N)nc23)[C@@H](C)CN1Cc1cccc2c1N(C)C(=O)CO2` [Example 635], the IC50 in experiment [1] (liposome (LIPGLO) assay) is 8 µM; in experiment [2] (liposome (LIPGLO) assay) it was 150 µM. In the case of `CC(c1ccc(C(F)(F)F)cc1)N1C[C@H](C)N(c2c(C#N)c(=O)n(C)c3ccc(C#N)nc23)C[C@H]1C` (stereo partly shown) [Example 788], the IC50 was 4.8 µM in experiment [1] (DGKα liposome (LIPGLO) assay) and over 250 µM in experiment [2] (DGKζ liposome (LIPGLO) assay). Turning to `C[C@@H]1CN(c2cc(=O)n(C)c3ccc(C#N)nc23)[C@@H](C)CN1C(COC(F)F)c1ccc(F)cc1` (single isomer, unassigned) [Example 1188], the IC50 in experiment [1] (liposome (LIPGLO) assay) was 0.029 µM; in experiment [2] (liposome (LIPGLO) assay), 0.78 µM. As for `CC(c1ccc(P(C)(C)=O)cc1)N1C[C@H](C)N(c2c(C#N)c(=O)n(C)c3ccc(C#N)nc23)C[C@H]1C` (single isomer, unassigned) [Example 1295], the values for the half-maximal inhibitory concentration (IC50) in experiment [1] (liposome (LIPGLO) assay) and in experiment [2] (liposome (LIPGLO) assay) were 130 µM and 47 µM, respectively.

For the compound `C[C@@H]1CN(c2cc(=O)n(C)c3ccc(C#N)nc23)[C@@H](C)CN1C(c1cccc(F)c1)c1ccc(C(F)(F)F)cn1` (single isomer, unassigned) [Example 371], the values for the IC50 in experiment [1] (liposome (LIPGLO) assay) and in experiment [2] (liposome (LIPGLO) assay) were 3 µM and 2.1 µM, respectively.

Take `COc1cc(F)ccc1C(c1ccc(F)cc1)N1C[C@H](C)N(c2c([N+](=O)[O-])c(=O)n(C)c3ccc(C#N)nc23)C[C@H]1C` (single isomer, unassigned) [Example 121]: the IC50 turned out to be 240 µM in experiment [1] (liposome (LIPGLO) assay) and 52 µM in experiment [2] (liposome (LIPGLO) assay).

Consider `C[C@@H]1CN(c2c(C#N)c(=O)n(C)c3ccc(C#N)nc23)[C@@H](C)CN1C(c1ccc(F)cc1)c1ccns1` (single isomer, unassigned) [Example 855], for which the IC50 was determined as 27 µM in experiment [1] (DGKα liposome (LIPGLO) assay) and 20 µM in experiment [2] (DGKζ liposome (LIPGLO) assay). For `CC(c1ccc(Cl)cc1)N1CCN(c2c(C#N)c(=O)n(C)c3ccc(C#N)nc23)C[C@H]1C` (single isomer, unassigned) [Example 978] the same measures were 1.3 µM and 4.9 µM.

As to `C[C@@H]1CN(c2cc(=O)n(C)c3ccc(C#N)nc23)[C@@H](C)CN1C(CF)c1ccc(F)cc1` (mixture of isomers) [Example 556, 8-[(2S,5R)-4-[2-fluoro-1-(4-fluorophenyl)ethyl]-2,5-dimethylpiperazin-1-yl]-5-methyl-6-oxo-5,6-dihydro-1,5-naphthyridine-2-carbonitrile], the IC50 in experiment [1] (liposome (LIPGLO) assay) was 2.6 µM; in experiment [2] (liposome (LIPGLO) assay) it was 6 µM. For the compound `CC[C@H]1CN(C(c2ccc(F)cc2)c2csc(C(F)(F)F)n2)[C@H](CC)CN1c1cc(=O)n(C)c2ccc(C#N)nc12` (single isomer, unassigned) [Example 1362], the results for the IC50 in experiment [1] (liposome (LIPGLO) assay) and in experiment [2] (liposome (LIPGLO) assay) were 0.16 µM and 0.05 µM, respectively.

In the case of `Cc1c(F)ccc(C(C)N2C[C@H](C)N(c3cc(=O)n(C)c4ccc(C#N)nc34)C[C@H]2C)c1Cl` (single isomer, unassigned) [Example 487], the IC50 in experiment [1] (liposome (LIPGLO) assay) came out at 41 µM; in experiment [2] (liposome (LIPGLO) assay), 11 µM. Consider `Cn1c(=O)cc(N2CCN(C(c3ccc(F)cc3)c3ccc(F)cc3)CC2C(N)=O)c2nc(C#N)ccc21` (single isomer, unassigned) [Example 141, 4-(bis(4-fluorophenyl)methyl)-1-(6-cyano-1-methyl-2-oxo-1,2-dihydro-1,5-naphthyridin-4-yl)piperazine-2-carboxamide], for which the IC50 in experiment [1] (liposome (LIPGLO) assay) stood at 240 µM; in experiment [2] (liposome (LIPGLO) assay), 200 µM. With `CC(C)Oc1ccccc1CN1C[C@H](C)N(c2cc(=O)n(C)c3ccc(C#N)nc23)C[C@H]1C` [Example 595], the IC50 in experiment [1] (liposome (LIPGLO) assay) was determined as 0.39 µM; in experiment [2] (liposome (LIPGLO) assay), 4.7 µM. As to `C[C@@H]1CN(c2cc(=O)n(C)c3ccc(C#N)nc23)[C@@H](C)CN1C(c1ccc(OC(F)(F)F)cc1)c1ccccn1` (stereo partly drawn) [Example 377, 8-((2S,5R)-2,5-dimethyl-4-(pyridin-2-yl(4-(trifluoromethoxy)phenyl)methyl)piperazin-1-yl)-5-methyl-6-oxo-5,6-dihydro-1,5-naphthyridine-2-carbonitrile], the figures for the IC50 in experiment [1] (liposome (LIPGLO) assay) and in experiment [2] (liposome (LIPGLO) assay) were 0.31 µM and 3.9 µM, respectively. With `CC[C@H]1CN(C(c2ccc(F)cc2)c2nc(C3CC3)no2)[C@H](CC)CN1c1cc(=O)n(C)c2ccc(C#N)nc12` (stereo partly shown) [Example 1065], the IC50 in experiment [2] (liposome (LIPGLO) assay) came out at 0.031 µM. Consider `Cc1nnc(C(C)N2C[C@H](C)N(c3cc(=O)n(C)c4ccc(C#N)nc34)C[C@H]2C)o1` (stereo partly shown) [Example 1437], for which the 50% inhibitory concentration (IC50) in experiment [1] (liposome (LIPGLO) assay) is 150 µM.

Regarding `C[C@@H]1CN(c2cc(=O)n(C)c3ccc(C#N)nc23)[C@@H](C)CN1Cc1cn(C)nn1` [Example 1435], the IC50 in experiment [1] (liposome (LIPGLO) assay) stood at 160 µM.
